# Test results from publication PMC10767396 (Advanced Science, 2023).
# What was measured:
# [1] = design: method as in PMID 36213537; settings: human liver microsomes; cited from earlier work
# BV2 cells [2] = experiment: Stereomicroscopic images of BV2 cell morphology; format: cell-based, murine
# Text: Stereomicroscopic images were captured before and after the treatment of different concentrations of PB118 on BV2 cells to elucidate the cytotoxicity based on the cellular morphology of BV2 cells by using Invitrogen EVOS XL Core stereo microscope.
# BV2 cells [3] = experiment: Microglial Aβ phagocytosis, MSD Aβ peptide panel 1 (4G8); format: cell-based, murine; settings: Aβ42 2 µg/mL + PB118 500 and 1000 nM, 6 h, vs control
# Method: (§1) Briefly, for microglia‐related amyloid (Aβ) phagocytosis study, BV2 cells were seeded in a 6‐well confocal dish (400k cells mL^−1) and cultured overnight for ≈90% confluency. […] Then, media were collected to perform the LDH assay for cell cytotoxicity assessment. Cells were washed carefully with PBS (2x) and lysed by adding 200 µL of MPER++ (10 mL MPER with 1% protease cocktail inhibitor and 1% EDTA) in each well. Cell lysates were collected in 1.5 mL Eppendorf tube and centrifuged at 12 000 rpm at 4 °C for 15 min and supernatants were collected for further studies. Total protein was quantified using the BCA protein assay kit (Pierce). Briefly, BV2 cells were cultured following previously published methods and grew in DMEM media containing 10% heat‐inactivated fetal bovine serum, 2 mM L‐Glutamine, and 1% penicillin/streptomycin (Life Technologies). […] Subsequently, media were collected and applied to LDH to assess cell viability; cells were extensively washed with PBS and were lysed in MPER lysis buffer (MPER++) supplemented with EDTA‐free protease inhibitors (Roche), Halt phosphatase inhibitor cocktail (Thermo Fisher Scientific). Lysates were centrifuged as before (12 000 rpm at 4 °C for 15 min) and supernatants were collected for further analysis. […]
# [4] = tested on: 3D human neural stem cell model of AD (ReNcell VM); experiment: MSD phospho (Thr231)/total tau and Aβ (6E10) assay in 3D-AD culture; format: cell-based; settings: 3 weeks
# Method: (§2) Human precursor ReN cells were used to prepare 3D AD environment following previous work.^[ [30] ^] Briefly, for 3D layers of cells, BD Matrigel stock solution (BD Biosciences) was diluted with ReN cell differentiation medium (in 1:15 dilution) (chilled) followed by vertexing with the cell pellets for 20 s. A final cell concentration of ≈2 × 10^6 cells mL^−1 was used and this cell/ Matrigel mixtures were immediately transferred ([…] in each) into an Optilux clear bottom 96‐well plates (BD Biosciences). A thin layer ([…]) of 3D gels was formed at the bottom of the plates after incubating the plates at 37 °C for 1 h and the media were changed. For differentiation before drug treatment, 3D‐plated cells were cultured for 6 weeks, and the media were changed every 3–4 days. […] The cells were harvested for extraction using a lysis buffer mixture (Lysis 6 buffer with protease inhibitor; 1:100), followed by shaking for 1 h at cold room and centrifugation at 2 k rpm for 30 min. Supernatants were collected and further analyzed by MSD immunoassay kit and western blot analysis.
# (§3) MSD immunoassays are quite robust and based on combining multiarray technology and electrochemiluminescence to identify numerous proteins in a single sample.
# 46 CNS‐related targets = tested on: 46 CNS‐related targets; design: method as in PMID 36213537; settings: cited from earlier work
# [5] = Stability in human serum (HPLC); format: in vitro ADME; settings: 37 °C
# BV2 cells [6] = experiment: Cold depolymerization assay; format: cell-based, murine; settings: PB118 500 nM 24 h, on ice 10 and 20 min in comparison to 0 min
# Method: To perform this assay, BV2 cells were seeded and cultured in an 8‐well Labtek chamber slide for overnight (100 k well^−1). […] Then cells were incubated on ice to induce microtubule depolymerization and were fixed using 4% PFA at different time points (0, 10, and 20 min). After that, cells were washed with PBS three times and blocked with blocking buffer (5% Donkey serum with 0.1% Triton‐X‐100 in PBS) and immunostaining was performed with these fixed cells against α‐tubulin (green) and acetylated α‐tubulin (red) antibodies. Appropriate secondary antibodies were used for visualization of these cells and images were captured in a Nikon C2 confocal microscopy.
# [7] = tested on: 3D human neural stem cell model of AD (ReNcell VM); experiment: LDH assay in 3D human neural culture; format: cell-based; settings: PB118 1 or 5 µM, 3 weeks
# Method: as §2, with “analysis. The previously reported CytoTox‐ONE assay was performed to analyze cell viability by measuring the release of lactate dehydrogenase (LDH) following the manufacturer's guidelines (Promega; Madison, WI). Briefly, 50 µL of cell culture media was utilized and a 1:1 dilution of substrate was added. […]” for “analysis.”
# [8] = design: method as in PMID 36213537; settings: C57BL/6 mice, i.p. 1 mg kg^-1, blood and brain at 30 min, 1 and 4 h; cited from earlier work
# [9] = tested on: human microglia HMC3 cells; experiment: LDH assay and stereomicroscopy in HMC3 cells; format: cell-based; settings: PB118 500 and 1000 nM, 6 h
# Method: The previously reported CytoTox‐ONE assay was performed to analyze cell viability by measuring the release of lactate dehydrogenase (LDH) following the manufacturer's guidelines (Promega; Madison, WI). Briefly, 50 µL of cell culture media was utilized and a 1:1 dilution of substrate was added. […] Under the influence of the assay's substrate, resazurin was converted to resorufin, its fluorescent form, owing to LDH. The fluorometric results were used to compare the experiment group to the control group to assess the cytotoxicity of treated compounds.
# HDAC6 enzyme = settings: read-out: IC50 for HDAC6; enzyme inhibition assay; cited from earlier work
# [10] = design: method as in PMID 36213537; settings: cited from earlier work
# LPS induced BV2 cells = experiment: Multiplex MSD-cytokine assay in LPS-induced BV2 cells; format: cell-based, murine; settings: LPS 10 ng/mL + PB118 500/1000 nM, 24 h, media
# Method: Briefly, for microglia‐related amyloid (Aβ) phagocytosis study, BV2 cells were seeded in a 6‐well confocal dish (400k cells mL^−1) and cultured overnight for ≈90% confluency. […] Then, media were collected to perform the LDH assay for cell cytotoxicity assessment. Cells were washed carefully with PBS (2x) and lysed by adding 200 µL of MPER++ (10 mL MPER with 1% protease cocktail inhibitor and 1% EDTA) in each well. Cell lysates were collected in 1.5 mL Eppendorf tube and centrifuged at 12 000 rpm at 4 °C for 15 min and supernatants were collected for further studies. Total protein was quantified using the BCA protein assay kit (Pierce). Briefly, BV2 cells were cultured following previously published methods and grew in DMEM media containing 10% heat‐inactivated fetal bovine serum, 2 mM L‐Glutamine, and 1% penicillin/streptomycin (Life Technologies). […] Subsequently, media were collected and applied to LDH to assess cell viability; cells were extensively washed with PBS and were lysed in MPER lysis buffer (MPER++) supplemented with EDTA‐free protease inhibitors (Roche), Halt phosphatase inhibitor cocktail (Thermo Fisher Scientific). Lysates were centrifuged as before (12 000 rpm at 4 °C for 15 min) and supernatants were collected for further analysis.
# as §3
# BV2 cells [11] = experiment: Western blot of PB118-treated BV2 cell lysates; format: cell-based, murine; settings: PB118 500 and 1000 nM, 6 h
# Method: The previously described WB method was implemented to perform and analyze western blot membrane.^[ [34] ^] […] Proteins were separated by the electrophoresis using the 4–12% Bis‐Tris SDS‐PAGE Gel System (Invitrogen, Thermo Fisher Scientific), followed by membrane transfer to PVDF membranes (Invitrogen, Thermo Fischer scientific). Next, the membranes were blocked for 30 min with the Superblock (Thermo Scientific) and then incubated overnight with primary antibodies following the dilutions mentioned below. The membranes were then washed with TBST (four times) and incubated with appropriate secondary antibodies (1:10 000 dilution) at room temperature for 2 h. Then, membranes were incubated with Supersignal West Femto (Life Technologies), and the images for immunoreactivity were developed and visualized by the LICOR Odyssey Fc. Quantifications of proteins of interest were performed by Image J software.
# HDAC1 = settings: read-out: IC50 for HDAC1; enzyme inhibition assay; cited from earlier work
# BV2 cells [12] = experiment: LDH cytotoxicity assay in BV2 cells; format: cell-based, murine
# Method: as §1
# BV2 cells [13] = experiment: Immunocytochemistry (ICC) in BV2 cells; format: cell-based, murine
# Method: ICC was performed following previously published articles.^[ [36] ^] Briefly, BV2 cells were seeded and grown overnight in a LabTek 8‐well chamber wells having ≈100 k cells well^−1. […] Discarded the media after 3 h, washed each well carefully with 150–300 µL of PBS (2x), and fixed with 4% PFA for 20 min at r.t. After that, washed each well again with 150–300 µL of PBS (2x) at r.t and incubated with blocking buffer (5% Donkey serum with 0.1% Triton‐X‐100 in PBS). Aspirate the blocking buffer and add 150 µL of primary antibody in each well and keep it at 4 °C for overnight shaking. Washed with washing buffer (PBS containing 0.1% Triton‐X‐100, 0.05% Tween‐20) twice and incubated with specific secondary antibody in each of the wells with gently shaking for 2 h at r.t. Discarded secondary solution and washed with washing buffer twice and incubated 10 min with 2 nM of Hoechst solution for another 10 min at r.t, washed with PBS (two times) and finally mounted with Prolong Gold antifade reagent, dried at r.t, and covered with a cover slip. Microscopic images were captured with these slides to understand the activity of HDAC6 toward tubulin/microtubule.
# [14] = higher concentration of PB118 (1 or 5 µM tested)
smiles,measurement,setting,value
O=C(NO)c1ccc(CN2CCCCc3ccccc32)c(F)c1 [PB118],half-life in human microsomal liver,[1],1.13 h
same,cell morphology (stereomicroscopic images),"BV2 cells [2]; LPS +/- PB118, 24 h",no significant difference of cell morphology
same,cell morphology (microscopic images before and after treatment),"BV2 cells [2]; PB118 with or without Aβ42, 6 h",no significant change in cell morphology
same,Aβ42 levels in cell lysates (phagocytosis),BV2 cells [3],significant increase
same,Aβ42 generation,[4]; PB118 1 or 5 µM,significantly reduced
same,p-tau (Thr231) level,[4]; [14],significantly reduced
same,total tau level,[4]; [14],significantly reduced
same,off-target binding profile,46 CNS‐related targets,good off‐target binding profile
same,decay constant in human serum,[5],6.3e-06 s⁻¹
same,mean lifetime in human serum,[5],43.6 h
same,compound remaining in human serum,"[5]; after 24 h, HPLC",≈ 57%
same,half-life (t1/2) in human serum,[5]; calculated by formula of Figure S2b,30.2 h
same,half-life at 5 mM,"[5]; human, calculated by formula of Figure S2b, read-out: half-life (t1/2) in human serum (converted)",~30.2 h
same,acetylated α-tubulin protein expression in cold depolymerization condition,BV2 cells [6],significantly higher
same,cytotoxicity (LDH assay),[7],no cytotoxicity
same,BBB crossing (brain/plasma study),[8],BBB crossing ability
same,"morphology and cytotoxicity (stereomicroscopy, LDH assay)",[9],no detrimental change in morphology or cytotoxicity
same,IC50,HDAC6 enzyme,0.0056 µM
same,binding with human plasma,[10],99.4%
same,IL-12p-70 level,LPS induced BV2 cells,significant reductions
same,KC/GRO (CXCL1) level,LPS induced BV2 cells,significant reductions
same,interleukin-6 (IL-6) level,LPS induced BV2 cells,significant reductions
same,"HDAC6 expression (WB, normalized to β-actin)",BV2 cells [11],non‐significant change
same,"Ac-α-tubulin protein level (WB, normalized to α-tubulin)",BV2 cells [11]; vs control,significant increase
same,IC50,HDAC1,7.82 µM
same,cell viability (LDH assay),"BV2 cells [12]; LPS 10 ng/mL +/- PB118 500 or 1000 nM, 24 h, treated vs control",No significant difference
same,cytotoxicity (LDH assay),"BV2 cells [12]; PB118 500 and 1000 nM with or without Aβ42 (2 µg/mL), 6 h",no significant cytotoxicity
same,HDAC6 expression (ICC),BV2 cells [13]; LPS 10 ng/mL + PB118 500 nM,lack of significant change
same,α-tubulin network (ICC),BV2 cells [13]; LPS 10 ng/mL + PB118 500 nM,lack of significant change
same,acetylated tubulin levels (ICC) with or without LPS,BV2 cells [13]; PB118 500 nM with or without LPS 10 ng/mL,no change
same,acetyl α-tubulin expression (ICC),"BV2 cells [13]; PB118 500 nM, 3 h, vs vehicle",higher compared to vehicle
